Data as given in publication PMC9596378, “Discovery and molecular basis of subtype-selective cyclophilin inhibitors” (Nature Chemical Biology, 2022).
Where “and” joins values, the source holds several entries; their conditions need not be identical. Equal values may be shown once. Read-outs that look alike come from different tables or passages of the source.

What was measured:
Assay in all cases: Chymotrypsin coupled prolyl-isomerase assay
Type in all cases: biochemical
[1] = biological target: T1, CypH (Homo sapiens, UniProt O43447); conditions: for CypH prolyl-isomerase assay raw dose-response value: Fig. 3b source data, replicates
T1 construct: PPIH (UniProtKB Entry O43447: residues 1–177); His6 with TEV site (2BT vector leader) (N); made in house; host or cells: E. coli BL21(DE3)
Protocol: (§1) Adapting a previously described protocol, with an Agilent Bravo Velocity 11 with a 384ST head, 90 µL assay buffer (25 mM HEPES pH 7.3, 100 mM NaCl, 0.01% Triton X-100) containing 5.28 nM cyclophilin was added into a flat, clear-bottom, black 384-well plate pre-chilled in a Corning CoolBox at 2–3 °C. Five microliters of compound pre-dissolved in 5% DMSO/assay buffer was then added to appropriate wells and incubated at 2–3 °C for 5 min. Five microliters of 0.5 mM α-chymotrypsin from bovine pancreas (Type II, lyophilized powder, Millipore-Sigma) in 20% 1 mM HCl/Assay Buffer was then added to each well and incubated at 2–3 °C for 5 min. The plate was then quickly transferred to a FLIPR Tetra High-Throughput Cellular Screening System (Molecular Devices). Using the internal liquid handling system of the FLIPR, 1 µL 0.5 mM Suc-AAPF-AMC (Chymotrypsin Substrate II, Millipore-Sigma) dissolved in 0.55 M LiCl/2,2,2-trifluoroethanol was added to each well, which was then mixed for 5 s, followed by immediate fluorescence measurements every 1 s for 330 s using a 360–380 nm excitation LED module and a 400–460 nm emission filter. Final concentrations of the plate include 5 nM cyclophilin, 0.25% DMSO, 25 µM α-chymotrypsin, 5 µM Suc-AAPF-AMC. Raw fluorescence data was analyzed by non-linear regression analysis with Prism v.9 by fitting one-phase association curves to each well. […] Rate constants calculated for each well (s^−1) were then normalized to substrate only (no prolyl-isomerase) and enzyme + substrate only controls. IC50 values were calculated as the value at which 50% inhibition was achieved on the non-linear regression fitted curve of each compound.

[2] = biological target: T2, CypG (Homo sapiens, UniProt Q13427); conditions: for CypG prolyl-isomerase assay raw dose-response value: Fig. 3b source data, replicates
T2 construct: PPIG (UniProtKB Entry Q13427: residues 1–179); His6 with thrombin site (pET28a LIC leader) (N); host or cells: E. coli BL21(DE3)
T2 sequence (Q13427 1-179): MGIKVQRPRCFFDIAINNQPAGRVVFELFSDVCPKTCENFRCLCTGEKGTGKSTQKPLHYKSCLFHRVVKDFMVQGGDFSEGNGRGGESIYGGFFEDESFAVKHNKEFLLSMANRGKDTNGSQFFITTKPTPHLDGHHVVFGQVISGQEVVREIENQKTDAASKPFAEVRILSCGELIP
Protocol: as §1

[3] = biological target: T3, CypE (Homo sapiens, UniProt Q9UNP9); conditions: for CypE prolyl-isomerase assay raw dose-response value: Fig. 3b source data, replicates
T3 construct: PPIE (UniProtKB Entry Q9UNP9: residues 131–301); host or cells: E. coli BL21(DE3)
Protocol: as §1

[4] = biological target: T4, CypA (Homo sapiens, UniProt P62937); conditions: for CypA prolyl-isomerase assay raw dose-response value: Fig. 3b source data, replicates
T4 construct: PPIA (UniProtKB Entry P62937: residues 1–165); made in house; host or cells: E. coli BL21(DE3)
Protocol: as §1

[5] = biological target: T5, CypC (Homo sapiens, UniProt P45877); conditions: for CypC prolyl-isomerase assay raw dose-response value: Fig. 3b source data, replicates
T5 construct: PPIC (UniProtKB Entry P45877: residues 24–212); host or cells: E. coli BL21(DE3)
Protocol: as §1

[6] = prolyl-isomerase inhibition, 5 nM cyclophilin, read-out: IC50 CypH
[7] = wild-type CypH, read-out: Wild-Type Cyclophilin Prolyl Isomerase Inhibition IC50 Values, CypH
[8] = wild-type CypG, read-out: Wild-Type Cyclophilin Prolyl Isomerase Inhibition IC50 Values, CypG
[9] = wild-type CypE, read-out: Wild-Type Cyclophilin Prolyl Isomerase Inhibition IC50 Values, CypE
[10] = prolyl-isomerase inhibition, 5 nM cyclophilin, read-out: IC50 CypA
[11] = wild-type CypC, read-out: Wild-Type Cyclophilin Prolyl Isomerase Inhibition IC50 Values, CypC

T4 sequence (P62937 whole entry, the tested form may be a part): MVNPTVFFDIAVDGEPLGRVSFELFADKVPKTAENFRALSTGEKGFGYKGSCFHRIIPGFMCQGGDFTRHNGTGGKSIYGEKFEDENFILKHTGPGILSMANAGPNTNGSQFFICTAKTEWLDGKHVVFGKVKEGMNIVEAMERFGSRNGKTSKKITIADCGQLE
T5 sequence (P45877 24-212): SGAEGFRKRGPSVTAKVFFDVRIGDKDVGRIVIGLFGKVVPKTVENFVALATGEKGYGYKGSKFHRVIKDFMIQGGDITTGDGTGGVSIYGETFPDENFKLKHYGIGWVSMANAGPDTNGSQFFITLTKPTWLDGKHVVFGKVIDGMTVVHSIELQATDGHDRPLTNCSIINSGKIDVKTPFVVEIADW
T1 sequence (O43447 whole entry, the tested form may be a part): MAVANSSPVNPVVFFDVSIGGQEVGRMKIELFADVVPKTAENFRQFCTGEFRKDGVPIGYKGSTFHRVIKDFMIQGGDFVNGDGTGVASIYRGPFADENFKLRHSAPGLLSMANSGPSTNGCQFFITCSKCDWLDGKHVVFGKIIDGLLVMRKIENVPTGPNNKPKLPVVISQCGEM
T3 sequence (Q9UNP9 131-301): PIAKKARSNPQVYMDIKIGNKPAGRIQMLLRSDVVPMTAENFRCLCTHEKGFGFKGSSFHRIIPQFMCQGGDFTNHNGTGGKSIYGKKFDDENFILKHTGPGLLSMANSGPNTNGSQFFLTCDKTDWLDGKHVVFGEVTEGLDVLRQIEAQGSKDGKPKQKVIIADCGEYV

SMILES: NCCOCCNC(=O)[C@@H]1CCNC(=O)/C=C/C(=O)N2CCC[C@](Cc3ccccc3)(C2)C(=O)N[C@@H](Cc2ccc(-c3ccc(CCC(=O)O)cc3)cc2)C(=O)NCc2ccccc2CC(=O)N1 [Compound B23]
- CypH prolyl-isomerase assay raw dose-response value ([1]; Dose 0.0201875 µM): 0.05491 and 0.05835 and 0.05541
- CypH prolyl-isomerase assay raw dose-response value ([1]; Dose 0.0605624 µM): 0.04538 and 0.05559 and 0.06086
- CypH prolyl-isomerase assay raw dose-response value ([1]; Dose 0.181687 µM): 0.05774 and 0.04961 and 0.05822
- CypH prolyl-isomerase assay raw dose-response value ([1]; Dose 0.545062 µM): 0.05324 and 0.05013 and 0.05095
- CypH prolyl-isomerase assay raw dose-response value ([1]; Dose 1.63519 µM): 0.05541 and 0.05439 and 0.06013
- CypH prolyl-isomerase assay raw dose-response value ([1]; Dose 4.90556 µM): 0.05126 and 0.04228 and 0.05669
- CypH prolyl-isomerase assay raw dose-response value ([1]; Dose 14.7167 µM): 0.04371 and 0.04194 and 0.04598
- CypH prolyl-isomerase assay raw dose-response value ([1]; Dose 44.15 µM): 0.03624 and 0.03187 and 0.03195
- IC50 [1, 6]: ~30 µM
- IC50 [1, 7]: 30 µM
- CypG prolyl-isomerase assay raw dose-response value ([2]; Dose 0.0201875 µM): 0.05557 and 0.07057 and 0.08284
- CypG prolyl-isomerase assay raw dose-response value ([2]; Dose 0.0605624 µM): 0.06342 and 0.06664 and 0.0785
- CypG prolyl-isomerase assay raw dose-response value ([2]; Dose 0.181687 µM): 0.06147 and 0.06545 and 0.06938
- CypG prolyl-isomerase assay raw dose-response value ([2]; Dose 0.545062 µM): 0.06208 and 0.06061 and 0.06273
- CypG prolyl-isomerase assay raw dose-response value ([2]; Dose 1.63519 µM): 0.04663 and 0.04276 and 0.05928
- CypG prolyl-isomerase assay raw dose-response value ([2]; Dose 4.90556 µM): 0.04439 and 0.04343 and 0.05116
- CypG prolyl-isomerase assay raw dose-response value ([2]; Dose 14.7167 µM): 0.03836 and 0.03799 and 0.04109
- CypG prolyl-isomerase assay raw dose-response value ([2]; Dose 44.15 µM): 0.02708 and 0.02241 and 0.02205
- IC50 [2, 8]: 5 µM
- CypE prolyl-isomerase assay raw dose-response value ([3]; Dose 0.00457247 µM): 0.1029 and 0.09388 and 0.1478
- CypE prolyl-isomerase assay raw dose-response value ([3]; Dose 0.0137174 µM): 0.07275 and 0.07554 and 0.1142
- CypE prolyl-isomerase assay raw dose-response value ([3]; Dose 0.0411523 µM): 0.04814 and 0.04078 and 0.05584
- CypE prolyl-isomerase assay raw dose-response value ([3]; Dose 0.123457 µM): 0.02663 and 0.02961 and 0.04183
- CypE prolyl-isomerase assay raw dose-response value ([3]; Dose 0.37037 µM): 0.01687 and 0.01785 and 0.01578
- CypE prolyl-isomerase assay raw dose-response value ([3]; Dose 1.11111 µM): 0.01294 and 0.01514 and 0.0179
- CypE prolyl-isomerase assay raw dose-response value ([3]; Dose 3.33333 µM): 0.01306 and 0.01252 and 0.01422
- CypE prolyl-isomerase assay raw dose-response value ([3]; Dose 10 µM): 0.01752 and 0.01195 and 0.01258
- IC50 [3, 9]: 0.019 µM
- IC50 ([4]; CypA column within the mutant section (comparator for CypA E81S/K82R), read-out: Mutant Cyclophilin Prolyl Isomerase Inhibition IC50 Values, CypA): 0.08 µM
- CypA prolyl-isomerase assay raw dose-response value ([4]; Dose 0.0201875 µM): 0.09097 and 0.1013 and 0.1158
- CypA prolyl-isomerase assay raw dose-response value ([4]; Dose 0.0605624 µM): 0.07524 and 0.06823 and 0.07786
- CypA prolyl-isomerase assay raw dose-response value ([4]; Dose 0.181687 µM): 0.04845 and 0.04593 and 0.054
- CypA prolyl-isomerase assay raw dose-response value ([4]; Dose 0.545062 µM): 0.03092 and 0.02915 and 0.02773
- CypA prolyl-isomerase assay raw dose-response value ([4]; Dose 1.63519 µM): 0.0188 and 0.01847 and 0.01826
- CypA prolyl-isomerase assay raw dose-response value ([4]; Dose 4.90556 µM): 0.01632 and 0.01475 and 0.01432
- CypA prolyl-isomerase assay raw dose-response value ([4]; Dose 14.7167 µM): 0.01473 and 0.01273 and 0.01279
- CypA prolyl-isomerase assay raw dose-response value ([4]; Dose 44.15 µM): 0.01511 and 0.01244 and 0.01258
- IC50 [4, 10]: 0.08 ± 0.01 µM
- IC50 ([4]; prolyl-isomerase inhibition, read-out: IC50 CypA): 0.08 µM
- IC50 ([4]; wild-type CypA, read-out: Wild-Type Cyclophilin Prolyl Isomerase Inhibition IC50 Values, CypA): 0.08 µM
- CypC prolyl-isomerase assay raw dose-response value ([5]; Dose 0.0201875 µM): 0.0364 and 0.03611 and 0.04566
- CypC prolyl-isomerase assay raw dose-response value ([5]; Dose 0.0605624 µM): 0.03688 and 0.04021 and 0.04113
- CypC prolyl-isomerase assay raw dose-response value ([5]; Dose 0.181687 µM): 0.04275 and 0.03781 and 0.03638
- CypC prolyl-isomerase assay raw dose-response value ([5]; Dose 0.545062 µM): 0.03775 and 0.04123 and 0.03915
- CypC prolyl-isomerase assay raw dose-response value ([5]; Dose 1.63519 µM): 0.0345 and 0.03482 and 0.03957
- CypC prolyl-isomerase assay raw dose-response value ([5]; Dose 4.90556 µM): 0.0293 and 0.02714 and 0.0334
- CypC prolyl-isomerase assay raw dose-response value ([5]; Dose 14.7167 µM): 0.02525 and 0.02065 and 0.02297
- CypC prolyl-isomerase assay raw dose-response value ([5]; Dose 44.15 µM): 0.02045 and 0.01408 and 0.0166
- IC50 [5, 11]: 5 µM

SMILES: NCCOCCNC(=O)[C@@H]1CCNC(=O)/C=C/C(=O)N2CCC[C@](Cc3ccccc3)(C2)C(=O)N[C@@H](Cc2ccc(-c3ccc(C(CC(=O)O)CC(=O)O)cc3)cc2)C(=O)NCc2ccccc2CC(=O)N1 [Compound B53]
- IC50 ([1]; Independent replicate 1, read-out: IC50 CypH): > 50 µM
- IC50 ([1]; Independent replicate 2, read-out: IC50 CypH): > 50 µM
- IC50 ([1]; Independent replicate 3, read-out: IC50 CypH): > 50 µM
- IC50 ([1]; Independent replicate 4, read-out: IC50 CypH): > 50 µM
- IC50 [1, 6]: > 50 µM
- IC50 [1, 7]: > 50 µM
- IC50 ([2]; Independent replicate 1, read-out: IC50 CypG): ~50 µM
- IC50 ([2]; Independent replicate 2, read-out: IC50 CypG): > 50 µM
- IC50 ([2]; Independent replicate 3, read-out: IC50 CypG): > 50 µM
- IC50 ([2]; Independent replicate 4, read-out: IC50 CypG): > 50 µM
- IC50 ([2]; prolyl-isomerase inhibition, 5 nM cyclophilin, read-out: IC50 CypG): > 50 µM
- IC50 [2, 8]: > 50 µM
- IC50 ([3]; Independent replicate 1, read-out: IC50 CypE): 0.6 ± 0.3 µM
- IC50 ([3]; Independent replicate 2, read-out: IC50 CypE): 0.9 ± 0.3 µM
- IC50 ([3]; Independent replicate 3, read-out: IC50 CypE): 0.6 ± 0.2 µM
- IC50 ([3]; Independent replicate 4, read-out: IC50 CypE): 1.1 ± 0.6 µM
- IC50 [3, 9]: 0.8 µM
- IC50 ([4]; Independent replicate 1, read-out: IC50 CypA): 3 ± 2 µM
- IC50 ([4]; Independent replicate 2, read-out: IC50 CypA): 3 ± 1 µM
- IC50 ([4]; Independent replicate 3, read-out: IC50 CypA): 4 ± 2 µM
- IC50 ([4]; Independent replicate 4, read-out: IC50 CypA): 4 ± 1 µM
- IC50 [4, 10]: 3.4 µM
- IC50 ([5]; Independent replicate 1, read-out: IC50 CypC): > 50 µM
- IC50 ([5]; Independent replicate 2, read-out: IC50 CypC): > 50 µM
- IC50 ([5]; Independent replicate 3, read-out: IC50 CypC): > 50 µM
- IC50 ([5]; Independent replicate 4, read-out: IC50 CypC): > 50 µM
- IC50 ([5]; prolyl-isomerase inhibition, 5 nM cyclophilin, read-out: IC50 CypC): > 50 µM
- IC50 [5, 11]: > 50 µM
